Key:
[1] = Lipophilicity, logD of the compound in Octanol/phosphate buffer at pH 7.4 after 30 mins by shake-flask method; format: physicochemical
[2] = Intrinsic clearance in human liver microsomes at 1 uM preincubated with NADPH for 5 mins followed by compound addition and measured upto 30 mins by LC-MS/MS analysis; format: ADME, Microsome; settings: read-out: CLH
[3] = Apparent permeability of compound in human Caco-2 cells; format: ADME, cell-based
[4] = Clearance in rat at 1 mg/kg, po or 0.5 mg/kg, iv; format: ADME, organism-based; settings: in vivo
[5] = Volume of distribution at steady state in rat at 1 mg/kg, po or 0.5 mg/kg, iv; format: ADME, organism-based; settings: in vivo, read-out: Vdss
[6] = Bioavailability in rat at 1 mg/kg, po or 0.5 mg/kg, iv; format: ADME, organism-based; settings: in vivo
[7] = Intrinsic clearance in human hepatocytes assessed per million cells at 1 uM measured upto 30 mins by HPLC analysis; format: ADME, cell-based, Hepatocyte; settings: read-out: CLH

CN(c1ccccc1)c1cnc(NCc2c(F)ccc3c2CCO3)n2cnnc12
logD at 0.5 h [1]: 3.6 | microsomal CLint at 1 µM [2]: 55 µL/min/mg

CNC(=O)c1ccc(-c2cnc(NCc3c(F)ccc4c3CCO4)c3cn[nH]c(=O)c23)c(C)n1
Papp ([3]; read-out: Papp): 54.1 ×10⁻⁶ cm/s | clearance [4]: 24 mL/min/kg | Vd [5]: 2.7 L/kg | bioavailability [6]: 53% | hepatocyte CLint at 1 µM [7]: 3 µL/min/1e6 cells | logD at 0.5 h [1]: 2.9 | microsomal CLint at 1 µM [2]: 23 µL/min/mg

Fc1ccc2c(c1CNc1ncc(Nc3ccccc3)c3nncn13)CCO2
logD at 0.5 h [1]: 3.3 | microsomal CLint at 1 µM [2]: 20 µL/min/mg

Cc1nccn1-c1cnc(NCc2c(F)ccc3c2CCO3)c2cn[nH]c(=O)c12
logD at 0.5 h [1]: 2.1 | microsomal CLint at 1 µM [2]: 8 µL/min/mg

Cc1ncccc1-c1cnc(NCc2c(F)ccc3c2CCO3)c2ncc(=O)[nH]c12
logD at 0.5 h [1]: 2.8 | microsomal CLint at 1 µM [2]: 21 µL/min/mg

O=C1CCCN1c1cnc(NCc2c(F)ccc3c2CCO3)c2cn[nH]c(=O)c12
logD at 0.5 h [1]: 1.8 | microsomal CLint at 1 µM [2]: 23 µL/min/mg

CN(C)Cc1ccc2c(c1)CN(c1cnc(NCc3c(F)ccc4c3CCO4)n3cnnc13)C2=O
logD at 0.5 h [1]: 1.6 | microsomal CLint at 1 µM [2]: 19 µL/min/mg

CN(C)C(=O)c1cc(-c2cnc(NCc3c(F)ccc4c3CCO4)c3cn[nH]c(=O)c23)n(C)n1
logD at 0.5 h [1]: 2.1 | microsomal CLint at 1 µM [2]: 21 µL/min/mg

CN(C(=O)c1ccccc1)c1cnc(NCc2c(F)ccc3c2CCO3)n2cnnc12
logD at 0.5 h [1]: 2.4 | microsomal CLint at 1 µM [2]: > 300 µL/min/mg

CC1(C)CC(=O)N(c2cnc(NCc3c(F)ccc4c3CCO4)n3cnnc23)C1
logD at 0.5 h [1]: 2 | microsomal CLint at 1 µM [2]: 16 µL/min/mg

O=C1CC2(CC2)CN1c1cnc(NCc2c(F)ccc3c2CCO3)n2cnnc12
clearance [4]: 23 mL/min/kg | Vd [5]: 1.4 L/kg | bioavailability [6]: 68% | hepatocyte CLint at 1 µM [7]: 3.5 µL/min/1e6 cells | logD at 0.5 h [1]: 1.9 | microsomal CLint at 1 µM [2]: < 3 µL/min/mg

Cc1ncccc1-c1cnc(NCc2c(F)ccc3c2CCO3)c2n[nH]c(=O)n12
logD at 0.5 h [1]: 2.5 | microsomal CLint at 1 µM [2]: 8 µL/min/mg

O=C1Cc2ccccc2CN1c1cnc(NCc2c(F)ccc3c2CCO3)n2cnnc12
logD at 0.5 h [1]: 2.7 | microsomal CLint at 1 µM [2]: 16 µL/min/mg

O=C1Oc2ccccc2CN1c1cnc(NCc2c(F)ccc3c2CCO3)n2cnnc12
logD at 0.5 h [1]: 2.7 | microsomal CLint at 1 µM [2]: 24 µL/min/mg

CN(c1cn(C)cn1)c1cnc(NCc2c(F)ccc3c2CCO3)n2cnnc12
logD at 0.5 h [1]: 1.6 | microsomal CLint at 1 µM [2]: 5.7 µL/min/mg

CN(C)Cc1ccc2c(c1)CN(c1cnc(NCc3c(F)ccc4c3CCO4)c3cn[nH]c(=O)c13)C2=O
logD at 0.5 h [1]: 2.2 | microsomal CLint at 1 µM [2]: 32 µL/min/mg

COc1ccccc1C(=O)Nc1cnc(NCc2c(F)ccc3c2CCO3)n2cnnc12
logD at 0.5 h [1]: 3.1 | microsomal CLint at 1 µM [2]: 20 µL/min/mg

CN(C)Cc1ccc(C(=O)Nc2cnc(NCc3c(F)ccc4c3CCO4)n3cnnc23)cc1
logD at 0.5 h [1]: 1.8 | microsomal CLint at 1 µM [2]: 13 µL/min/mg

O=C(Nc1cnc(NCc2c(F)ccc3c2CCO3)n2cnnc12)c1ccccc1
logD at 0.5 h [1]: 3 | microsomal CLint at 1 µM [2]: 10 µL/min/mg

O=C(Nc1cnc(NCc2c(F)ccc3c2CCO3)n2cnnc12)c1cccnc1
logD at 0.5 h [1]: 2 | microsomal CLint at 1 µM [2]: < 3 µL/min/mg

CN(c1cccnc1)c1cnc(NCc2c(F)ccc3c2CCO3)n2cnnc12
logD at 0.5 h [1]: 2.6 | microsomal CLint at 1 µM [2]: 80 µL/min/mg

CNC(=O)c1cc(-c2cnc(NCc3c(F)ccc4c3CCO4)c3cn[nH]c(=O)c23)n(C)n1
logD at 0.5 h [1]: 2.1 | microsomal CLint at 1 µM [2]: < 3 µL/min/mg

O=C1CCCN1c1cnc(NCc2c(F)ccc3c2CCO3)n2cnnc12
logD at 0.5 h [1]: 1.3 | microsomal CLint at 1 µM [2]: < 3 µL/min/mg

Cc1ncccc1-c1cnc(NCc2c(F)ccc3c2CCO3)n2c(=O)[nH]nc12
logD at 0.5 h [1]: 3 | microsomal CLint at 1 µM [2]: 36 µL/min/mg

CN(c1cnn(C)c1)c1cnc(NCc2c(F)ccc3c2CCO3)n2cnnc12
logD at 0.5 h [1]: 2.2 | microsomal CLint at 1 µM [2]: 8.9 µL/min/mg

CN(c1ccn(C)n1)c1cnc(NCc2c(F)ccc3c2CCO3)n2cnnc12
clearance [4]: 29 mL/min/kg | Vd [5]: 3 L/kg | bioavailability [6]: 67% | hepatocyte CLint at 1 µM [7]: < 1 µL/min/1e6 cells | logD at 0.5 h [1]: 1.8 | microsomal CLint at 1 µM [2]: 11 µL/min/mg

O=C1c2ccc(OCCN3CCCC3)cc2CN1c1cnc(NCc2c(F)ccc3c2CCO3)n2cnnc12
Papp ([3]; read-out: Papp): < 0.6 ×10⁻⁶ cm/s | clearance [4]: 35 mL/min/kg | Vd [5]: 6.5 L/kg | logD at 0.5 h [1]: 1.6 | microsomal CLint at 1 µM [2]: 18 µL/min/mg

Cc1ncc(-c2cnc(NCc3c(F)ccc4c3CCO4)c3cn[nH]c(=O)c23)n1C
logD at 0.5 h [1]: 1.9 | microsomal CLint at 1 µM [2]: 10 µL/min/mg

Cc1ncccc1-c1cnc(NCc2c(F)ccc3c2CCO3)c2nn(CC#N)c(=O)n12
logD at 0.5 h [1]: 2.2 | microsomal CLint at 1 µM [2]: 151 µL/min/mg

C[C@H]1CC(=O)N(c2cnc(NCc3c(F)ccc4c3CCO4)n3cnnc23)C1
logD at 0.5 h [1]: 1.8 | microsomal CLint at 1 µM [2]: < 3 µL/min/mg

COCCC(=O)Nc1cnc(NCc2c(F)ccc3c2CCO3)n2cnnc12
logD at 0.5 h [1]: 1.4 | microsomal CLint at 1 µM [2]: < 3 µL/min/mg

O=C1c2ccccc2CN1c1cnc(NCc2c(F)ccc3c2CCO3)n2cnnc12
hepatocyte CLint at 1 µM [7]: 2.7 µL/min/1e6 cells | logD at 0.5 h [1]: 2.7 | microsomal CLint at 1 µM [2]: 13 µL/min/mg

CN(c1ncco1)c1cnc(NCc2c(F)ccc3c2CCO3)n2cnnc12
clearance [4]: 29 mL/min/kg | Vd [5]: 3.1 L/kg | bioavailability [6]: 61% | hepatocyte CLint at 1 µM [7]: 1.4 µL/min/1e6 cells | logD at 0.5 h [1]: 2.1 | microsomal CLint at 1 µM [2]: 11 µL/min/mg

O=C1c2cnccc2CN1c1cnc(NCc2c(F)ccc3c2CCO3)n2cnnc12
logD at 0.5 h [1]: 1.6 | microsomal CLint at 1 µM [2]: 5 µL/min/mg

Cc1nn(C)cc1-c1cnc(NCc2c(F)ccc3c2CCO3)c2cn[nH]c(=O)c12
logD at 0.5 h [1]: 2.8 | microsomal CLint at 1 µM [2]: 27 µL/min/mg

C[C@@H]1CC(=O)N(c2cnc(NCc3c(F)ccc4c3CCO4)n3cnnc23)C1
logD at 0.5 h [1]: 1.8 | microsomal CLint at 1 µM [2]: < 3 µL/min/mg

Cn1nccc1-c1cnc(NCc2c(F)ccc3c2CCO3)c2cn[nH]c(=O)c12
logD at 0.5 h [1]: 2.6 | microsomal CLint at 1 µM [2]: 14 µL/min/mg

CN(c1ccncc1)c1cnc(NCc2c(F)ccc3c2CCO3)n2cnnc12
logD at 0.5 h [1]: 1.4 | microsomal CLint at 1 µM [2]: 5.2 µL/min/mg

O=C(Nc1ccccc1)c1cnc(NCc2c(F)ccc3c2CCO3)n2cnnc12
logD at 0.5 h [1]: 4.1 | microsomal CLint at 1 µM [2]: 14 µL/min/mg

Fc1ccc2c(c1CNc1ncc(Oc3ccccc3)c3nncn13)CCO2
logD at 0.5 h [1]: 3.5 | microsomal CLint at 1 µM [2]: 18 µL/min/mg

Cc1nc(CN(C)C)ccc1-c1cnc(NCc2c(F)ccc3c2CCO3)c2cn[nH]c(=O)c12
Papp ([3]; read-out: Papp): < 0.6 ×10⁻⁶ cm/s | logD at 0.5 h [1]: 2 | microsomal CLint at 1 µM [2]: 13 µL/min/mg

Cc1ncccc1-c1cnc(NCc2c(F)ccc3c2CCO3)c2cn[nH]c(=O)c12
hepatocyte CLint at 1 µM [7]: 4.6 µL/min/1e6 cells | logD at 0.5 h [1]: 3 | microsomal CLint at 1 µM [2]: 41 µL/min/mg

Cc1nc(CO)ccc1-c1cnc(NCc2c(F)ccc3c2CCO3)c2cn[nH]c(=O)c12
logD at 0.5 h [1]: 2.4 | microsomal CLint at 1 µM [2]: 11 µL/min/mg

Cc1ncccc1-c1cnc(NCc2c(F)ccc3c2CCO3)n2cnnc12
Papp [3]: 38.7 10^-6 cm/s | clearance [4]: 19 mL/min/kg | Vd [5]: 3.7 L/kg | bioavailability [6]: 74% | hepatocyte CLint at 1 µM [7]: 2.6 µL/min/1e6 cells | logD at 0.5 h [1]: 2.5 | microsomal CLint at 1 µM [2]: 15 µL/min/mg

Cc1cc(-c2cnc(NCc3c(F)ccc4c3CCO4)c3cn[nH]c(=O)c23)n(C)n1
logD at 0.5 h [1]: 3 | microsomal CLint at 1 µM [2]: 24 µL/min/mg

CNC(=O)c1ncc(-c2cnc(NCc3c(F)ccc4c3CCO4)c3cn[nH]c(=O)c23)n1C
logD at 0.5 h [1]: 2.5 | microsomal CLint at 1 µM [2]: 24 µL/min/mg

Cc1nc(C(=O)N(C)C)ccc1-c1cnc(NCc2c(F)ccc3c2CCO3)c2cn[nH]c(=O)c12
Papp ([3]; read-out: Papp): 1.7 ×10⁻⁶ cm/s | clearance [4]: 54 mL/min/kg | Vd [5]: 1.9 L/kg | bioavailability [6]: 22% | hepatocyte CLint at 1 µM [7]: < 1.3 µL/min/1e6 cells | logD at 0.5 h [1]: 2.1 | microsomal CLint at 1 µM [2]: 19 µL/min/mg

CN(c1ccn(C)n1)c1cnc(NCc2c(F)ccc3c2CCO3)c2cn[nH]c(=O)c12
logD at 0.5 h [1]: 2.4 | microsomal CLint at 1 µM [2]: 62 µL/min/mg

CC(=O)N1CCC(c2cnc(NCc3c(F)ccc4c3CCO4)c3cn[nH]c(=O)c23)CC1
logD at 0.5 h [1]: 2.9 | microsomal CLint at 1 µM [2]: 207 µL/min/mg

Cn1cc(-c2cnc(NCc3c(F)ccc4c3CCO4)c3cn[nH]c(=O)c23)cn1
logD at 0.5 h [1]: 2.7 | microsomal CLint at 1 µM [2]: 21 µL/min/mg
